Results on 10 compounds are retold here after patent US9981950B2, “Triazoles as NR2B receptor inhibitors” (Janssen Pharmaceuticals, Inc., priority 2014, dated 2018).

The target in the first test is cloned human NR1/NR2B ion channels (Homo sapiens (Human), UniProt Q05586+Q13224). Nature of the test: HNR2BC: calcium influx assay on cloned human NR1/NR2B ion channels expressed in HEK cells. In kind it is cell-based. The settings on record: HEK cells hNR1/NR2B, 100 μM glutamate + 100 μM glycine, 3 parameter plot. The protocol: HNR2BC: Effects of Test Articles on Cloned Human NR1/NR2B Ion Channels Expressed in Mammalian Cells
Sequence of cloned human NR1/NR2B ion channels (Q13224 27-1484, other chains not shown): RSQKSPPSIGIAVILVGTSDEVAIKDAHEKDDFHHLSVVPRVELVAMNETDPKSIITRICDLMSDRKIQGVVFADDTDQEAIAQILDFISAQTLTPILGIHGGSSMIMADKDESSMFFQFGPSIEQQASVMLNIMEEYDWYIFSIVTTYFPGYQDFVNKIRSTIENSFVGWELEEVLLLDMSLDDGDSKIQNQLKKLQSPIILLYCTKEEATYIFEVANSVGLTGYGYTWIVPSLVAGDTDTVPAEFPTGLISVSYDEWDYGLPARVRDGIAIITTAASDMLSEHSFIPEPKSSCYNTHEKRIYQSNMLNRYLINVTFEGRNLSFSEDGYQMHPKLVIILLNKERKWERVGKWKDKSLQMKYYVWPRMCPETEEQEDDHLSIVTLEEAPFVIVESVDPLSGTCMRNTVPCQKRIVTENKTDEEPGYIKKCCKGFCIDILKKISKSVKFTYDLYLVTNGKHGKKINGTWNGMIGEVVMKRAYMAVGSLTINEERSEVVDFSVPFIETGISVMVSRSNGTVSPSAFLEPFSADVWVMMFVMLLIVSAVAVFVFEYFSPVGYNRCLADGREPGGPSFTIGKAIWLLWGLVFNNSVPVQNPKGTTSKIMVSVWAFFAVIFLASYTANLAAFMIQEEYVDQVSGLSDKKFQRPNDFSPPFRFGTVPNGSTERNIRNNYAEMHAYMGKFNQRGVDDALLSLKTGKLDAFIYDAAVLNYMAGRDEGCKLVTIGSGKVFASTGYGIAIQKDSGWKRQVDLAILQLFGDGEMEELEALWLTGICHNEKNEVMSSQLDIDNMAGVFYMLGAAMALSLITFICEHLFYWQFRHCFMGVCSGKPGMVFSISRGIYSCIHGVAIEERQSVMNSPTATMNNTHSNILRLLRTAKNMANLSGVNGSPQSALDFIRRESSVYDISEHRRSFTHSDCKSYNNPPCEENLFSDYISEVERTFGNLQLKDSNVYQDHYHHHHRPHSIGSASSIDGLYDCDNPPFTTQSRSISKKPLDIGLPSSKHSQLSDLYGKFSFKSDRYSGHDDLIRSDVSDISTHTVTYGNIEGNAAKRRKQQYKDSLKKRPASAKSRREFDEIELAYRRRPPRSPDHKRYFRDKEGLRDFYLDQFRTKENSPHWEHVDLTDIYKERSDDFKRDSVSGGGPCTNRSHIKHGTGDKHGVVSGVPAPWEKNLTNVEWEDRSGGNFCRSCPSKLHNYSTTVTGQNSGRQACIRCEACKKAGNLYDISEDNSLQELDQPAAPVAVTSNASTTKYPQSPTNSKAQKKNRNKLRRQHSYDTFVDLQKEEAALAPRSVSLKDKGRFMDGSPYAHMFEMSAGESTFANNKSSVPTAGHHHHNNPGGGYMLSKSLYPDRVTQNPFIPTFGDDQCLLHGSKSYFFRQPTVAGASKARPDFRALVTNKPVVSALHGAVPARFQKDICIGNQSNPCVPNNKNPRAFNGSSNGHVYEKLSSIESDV
The ability of test compounds to act as an antagonist of NR1/NR2B were evaluated with a calcium influx assay (Calcium 5 Assay Kit, Molecular Devices).
For the antagonist assessment, NR1/NR2B was activated with the positive control agonist (Mg^2+-free HBPS+100 μM glutamic acid+100 μM glycine). The effect of each test article to inhibit the signal was examined after agonist stimulation and compared to the positive control antagonist (MK-801).
A HEK cell line, stable transfected with hNR1/NR2B was used. This tetracycline inducible cell line is transfected with GRIN1 (GeneBank accession number NM 007327.2) and GRIN2B (GeneBank accession number NM_000834.3.). The cells were cultured in cell culture flasks with DMEM/F12 supplemented with 10% FCS, 1% PenStrep and a selection of additional antibiotics.
Forty-Eight (48) hours before the assay the cells were plated into 96-well black well, flat clear bottom microtiter plates at a density of 50000 cells/well. Twenty-Four (24) hours later the receptor expression was induced by the addition of 1 μg/ml tetracycline in the presence of 2 mM ketamine and 200 μM 7-CKA. After 24 h of receptor induction the plates were used for the assay.
The medium was removed and the cells were loaded with 200 μl loading buffer (Molecular Devices) in Mg2+-free HBPS containing 100 μM 7-CKA at 37° C. for one (1) hour.
The test compounds were then solubilized in 100% DMSO and diluted to yield eight (8) different concentrations in 100% DMSO. A 96 well drug plate was prepared by diluting with water and glycine/glutamate to a 5-fold of final test concentration. Fluorescence intensity of the cells in the plate was measured in a FlexStation using an excitation wavelength of 485 nm and an emission wavelength of 525 nm. Twenty (20) seconds after starting the recordings the compounds together with the agonists glycine (100 μM) and glutamate (100 μM) were added into the wells and the fluorescence measured for ninety (90) seconds in summary.
The IC50 values provided in the paragraph below were determined using a 3 parameter plot.
The IC50 is the midpoint of a concentration-inhibition curve. On to `CC(C)c1nccn1Cc1cn(-c2ccc(Cl)cc2)nn1` [Example 23, 1-(4-Chloro-phenyl)-4-(2-isopropyl-imidazol-1-ylmethyl)-1H-[1,2,3]triazole], for which the IC50 came out at 17.5 µM.
Same read-out and setting: as for `Cc1nccn1Cc1cn(-c2ccc(F)c(C(F)F)c2)nn1` [Example 81, 1-(3-Difluoromethyl-4-fluoro-1-phenyl)-4-(2-methyl-imidazol-1-ylmethyl)-1H-[1,2,3]triazole], the figure is 3.79 µM; as for `Fc1ccc(-n2cc(Cn3ccnc3C3CC3)nn2)cc1C(F)F` [Example 82, 4-(2-Cyclopropyl-imidazol-1-ylmethyl)-1-(3-difluoromethyl-4-fluoro-phenyl)-1H-[1,2,3]triazole], 4.89 µM.
Same read-out and setting: as for `CC(C)c1nccn1Cc1cn(-c2ccc(F)c(C(F)F)c2)nn1` [Example 84, 1-(3-Difluoromethyl-4-fluoro-phenyl)-4-(2-isopropyl-imidazol-1-ylmethyl)-1H-[1,2,3]triazole], the figure is 4.2 µM.
On to `Cc1nccn1Cc1cn(-c2ccc(Cl)c(OC(F)F)c2)nn1` [Example 93, 1-(4-Chloro-3-difluoromethoxy-phenyl)-4-(2-methyl-imidazol-1-ylmethyl)-1H-[1,2,3]triazole], for which the IC50 is 0.41 µM.
`OCCc1nccn1Cc1cn(-c2ccc(F)c(OC(F)F)c2)nn1` [Example 101, 1-(3-Difluoromethoxy-4-fluoro-phenyl)-4-[2-(2-hydroxy-ethyl)-imidazol-1-ylmethyl]-1H-[1,2,3]triazole]: the IC50 was determined as 1.65 µM.
As to `Cn1nccc1Cc1cn(-c2ccc(F)c(Cl)c2)nn1` [Example 109, 1-(3-Chloro-4-fluoro-phenyl)-4-(2-methyl-2H-pyrazol-3-ylmethyl)-1H-[1,2,3]triazole], the IC50 came out at 109 µM.
`Nc1nccn1Cc1cn(-c2ccc(Cl)c(C(F)F)c2)nn1` [Example 113A, 4-(2-amino-imidazol-1-ylmethyl)-1-(4-chloro-3-difluoromethyl-phenyl)-1H-[1,2,3]triazole]: the IC50 turned out to be 0.84 µM.
Same read-out and setting: as for `Nc1nccn1Cc1cn(-c2ccc(F)c(C(F)F)c2)nn1` [Example 113B, 4-(2-amino-imidazol-1-ylmethyl)-1-(4-fluoro-3-difluoromethyl-phenyl)-1H-[1,2,3]triazole], the figure is 0.66 µM; as for `CC(F)(F)c1cc(-n2cc(Cn3ccnc3N)nn2)ccc1F` [Example 114], 2.34 µM.

The test system of a further test is Male NMRI mice. Put plainly: Forced swim test in mice. It counts as in vivo. The settings on record: p.o. 30 minutes before the test. The protocol:
The method, which detects antidepressant activity, follows that described by Porsolt et al (Arch. Int. Pharmacodyn., 229, 327-336, 1977), which is incorporated by reference herein in its entirety.
Mice forced to swim in a situation from which they cannot escape rapidly become immobile. Antidepressants decrease the duration of immobility.
Male NMRI mice (Janvier, France), weighing 20-30 g, were individually placed in a cylinder (height=24 cm; diameter=13 cm) containing 10 cm water (22° C.) from which they cannot escape.
The mice were placed in the water for 6 minutes and the duration of immobility during the last 4 minutes was measured. The latency to the first bout of immobility was also recorded starting from the beginning of the test. 10 mice were studied per group. The test substance was administered p.o. 30 minutes before the test and compared with vehicle control group. The test was performed blind.
For the compound `Fc1ccc(-n2cc(Cn3ccnc3C3CC3)nn2)cc1C(F)F` [Example 82, 4-(2-Cyclopropyl-imidazol-1-ylmethyl)-1-(3-difluoromethyl-4-fluoro-phenyl)-1H-[1,2,3]triazole], the “Minimum effective dose (mg/kg p.o.)” value was determined as 60 mg/kg.
In the case of `OCCc1nccn1Cc1cn(-c2ccc(F)c(OC(F)F)c2)nn1` [Example 101, 1-(3-Difluoromethoxy-4-fluoro-phenyl)-4-[2-(2-hydroxy-ethyl)-imidazol-1-ylmethyl]-1H-[1,2,3]triazole], the “Minimum effective dose (mg/kg p.o.)” value is reported as above 30 mg/kg.
